Measured values taken from patent publication US20120245137A1 (Zalicus Pharmaceuticals Ltd., priority 2009, published 2012).
Like-named read-outs stand apart in the source and are kept apart here.

Experiments:
Type in all cases: cell-based
CAv1.2 = CAv1.2 (Homo sapiens, UniProt Q13936); assay: FLIPR data, CAv1.2 channel blocking (Table 6); conditions: for CAv1.2 IC50 Ratio closed/inact.: ratio closed/inactivated IC50
Human Cav 2.2 channels = Human Cav 2.2 channels (Homo sapiens, UniProt Q00975); assay: Fluorescent assay for CaV2.2 channels using potassium depolarization (VIPR/FLIPR); conditions: FLIPR data; for CAv2.2 IC50 Ratio closed/inact.: ratio closed/inactivated IC50
Outline: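 HEK293 cells stably expressing human Cav2.2 with α2δ and β subunits plus Kir2.3 were loaded with fluo-4 and incubated 30 min at 25 °C with compound in 4, 12, 25 or 30 mM potassium buffer. Channels were opened with 70 mM potassium (final) and calcium influx was read by fluorescence (Ex 480/Em 535 nm).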

T-type calcium channel [1] = molecular target: T-type calcium channel (Homo sapiens, UniProt O43497); assay: T-type channel blocking, FLIPR data (Table 6); conditions: CAv3.1
Chain of T-type calcium channel (Homo sapiens, UniProt O43497) (O43497 whole entry): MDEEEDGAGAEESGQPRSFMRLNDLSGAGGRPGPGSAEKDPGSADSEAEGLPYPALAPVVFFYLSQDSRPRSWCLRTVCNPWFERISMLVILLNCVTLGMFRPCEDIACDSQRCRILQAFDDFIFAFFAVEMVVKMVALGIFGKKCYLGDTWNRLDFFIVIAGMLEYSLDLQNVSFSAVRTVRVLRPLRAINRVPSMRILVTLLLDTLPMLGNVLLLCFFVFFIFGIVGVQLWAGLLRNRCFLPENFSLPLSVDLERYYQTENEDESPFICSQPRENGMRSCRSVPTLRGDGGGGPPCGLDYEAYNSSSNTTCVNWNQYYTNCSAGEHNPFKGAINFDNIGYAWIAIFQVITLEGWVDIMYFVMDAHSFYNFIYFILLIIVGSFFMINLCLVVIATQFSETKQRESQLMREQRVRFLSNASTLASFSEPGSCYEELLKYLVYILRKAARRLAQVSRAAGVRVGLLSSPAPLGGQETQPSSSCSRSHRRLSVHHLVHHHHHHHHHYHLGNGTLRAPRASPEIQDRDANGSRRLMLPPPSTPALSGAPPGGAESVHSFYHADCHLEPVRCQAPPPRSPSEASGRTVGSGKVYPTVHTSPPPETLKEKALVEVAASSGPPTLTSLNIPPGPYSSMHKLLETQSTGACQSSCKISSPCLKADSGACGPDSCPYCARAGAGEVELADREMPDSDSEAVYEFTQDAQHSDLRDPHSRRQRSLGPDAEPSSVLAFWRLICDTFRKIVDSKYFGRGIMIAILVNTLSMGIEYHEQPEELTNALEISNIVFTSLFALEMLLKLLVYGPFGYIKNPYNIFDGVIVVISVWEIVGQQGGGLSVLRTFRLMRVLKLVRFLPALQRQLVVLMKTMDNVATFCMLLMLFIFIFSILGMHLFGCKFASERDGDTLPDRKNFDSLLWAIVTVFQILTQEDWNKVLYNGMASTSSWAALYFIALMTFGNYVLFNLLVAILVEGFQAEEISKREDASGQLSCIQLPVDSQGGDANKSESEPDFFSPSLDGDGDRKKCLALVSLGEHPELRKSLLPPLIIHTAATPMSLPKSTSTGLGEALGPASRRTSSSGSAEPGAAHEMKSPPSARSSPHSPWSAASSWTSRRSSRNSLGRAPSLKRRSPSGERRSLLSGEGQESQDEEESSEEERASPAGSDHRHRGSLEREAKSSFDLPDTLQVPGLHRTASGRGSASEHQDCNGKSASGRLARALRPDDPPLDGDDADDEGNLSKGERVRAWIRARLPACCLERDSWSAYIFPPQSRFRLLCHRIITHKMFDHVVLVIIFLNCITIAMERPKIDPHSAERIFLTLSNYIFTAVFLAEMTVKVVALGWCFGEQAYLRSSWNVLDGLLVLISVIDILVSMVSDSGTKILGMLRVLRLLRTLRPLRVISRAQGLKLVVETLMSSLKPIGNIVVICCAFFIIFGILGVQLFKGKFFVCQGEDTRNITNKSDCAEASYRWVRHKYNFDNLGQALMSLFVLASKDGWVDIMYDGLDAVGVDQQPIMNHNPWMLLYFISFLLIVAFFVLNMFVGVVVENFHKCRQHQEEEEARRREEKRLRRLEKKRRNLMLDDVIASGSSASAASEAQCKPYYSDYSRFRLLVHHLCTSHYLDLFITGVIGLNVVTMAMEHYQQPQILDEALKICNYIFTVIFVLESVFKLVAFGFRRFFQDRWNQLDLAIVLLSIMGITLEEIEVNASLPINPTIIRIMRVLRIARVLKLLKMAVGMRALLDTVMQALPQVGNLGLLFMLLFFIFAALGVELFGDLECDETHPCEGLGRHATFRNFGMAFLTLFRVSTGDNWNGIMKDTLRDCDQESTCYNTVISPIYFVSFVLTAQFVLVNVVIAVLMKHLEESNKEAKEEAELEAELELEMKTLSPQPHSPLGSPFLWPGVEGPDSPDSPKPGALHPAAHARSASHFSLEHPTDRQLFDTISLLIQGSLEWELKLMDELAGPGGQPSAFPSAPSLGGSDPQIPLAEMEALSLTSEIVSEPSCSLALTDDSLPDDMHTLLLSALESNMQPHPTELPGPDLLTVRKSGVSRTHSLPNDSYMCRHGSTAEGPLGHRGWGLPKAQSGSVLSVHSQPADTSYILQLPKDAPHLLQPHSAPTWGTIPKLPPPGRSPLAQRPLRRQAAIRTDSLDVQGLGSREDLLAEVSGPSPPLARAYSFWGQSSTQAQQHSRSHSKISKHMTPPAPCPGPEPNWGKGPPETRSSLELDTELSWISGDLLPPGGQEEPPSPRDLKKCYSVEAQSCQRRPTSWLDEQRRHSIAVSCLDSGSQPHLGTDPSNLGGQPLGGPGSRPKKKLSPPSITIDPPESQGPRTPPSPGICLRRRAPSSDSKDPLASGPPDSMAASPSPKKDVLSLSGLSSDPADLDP
Text: (§1) Another method, high-throughput spectrophotometric assay, utilizes loading of the cell lines with a fluorescent dye sensitive to intracellular calcium concentration and subsequent examination of the effects of compounds on the ability of depolarization by potassium chloride or other means to alter intracellular calcium levels.

T-type calcium channel [2] = molecular target: T-type calcium channel (Homo sapiens, UniProt O95180); assay: T-type channel blocking, FLIPR data (Table 6); conditions: for CAv3.2 IC50 Ratio closed/inact.: CAv3.2, ratio closed/inactivated IC50
Chain of T-type calcium channel (Homo sapiens, UniProt O95180) (O95180 whole entry): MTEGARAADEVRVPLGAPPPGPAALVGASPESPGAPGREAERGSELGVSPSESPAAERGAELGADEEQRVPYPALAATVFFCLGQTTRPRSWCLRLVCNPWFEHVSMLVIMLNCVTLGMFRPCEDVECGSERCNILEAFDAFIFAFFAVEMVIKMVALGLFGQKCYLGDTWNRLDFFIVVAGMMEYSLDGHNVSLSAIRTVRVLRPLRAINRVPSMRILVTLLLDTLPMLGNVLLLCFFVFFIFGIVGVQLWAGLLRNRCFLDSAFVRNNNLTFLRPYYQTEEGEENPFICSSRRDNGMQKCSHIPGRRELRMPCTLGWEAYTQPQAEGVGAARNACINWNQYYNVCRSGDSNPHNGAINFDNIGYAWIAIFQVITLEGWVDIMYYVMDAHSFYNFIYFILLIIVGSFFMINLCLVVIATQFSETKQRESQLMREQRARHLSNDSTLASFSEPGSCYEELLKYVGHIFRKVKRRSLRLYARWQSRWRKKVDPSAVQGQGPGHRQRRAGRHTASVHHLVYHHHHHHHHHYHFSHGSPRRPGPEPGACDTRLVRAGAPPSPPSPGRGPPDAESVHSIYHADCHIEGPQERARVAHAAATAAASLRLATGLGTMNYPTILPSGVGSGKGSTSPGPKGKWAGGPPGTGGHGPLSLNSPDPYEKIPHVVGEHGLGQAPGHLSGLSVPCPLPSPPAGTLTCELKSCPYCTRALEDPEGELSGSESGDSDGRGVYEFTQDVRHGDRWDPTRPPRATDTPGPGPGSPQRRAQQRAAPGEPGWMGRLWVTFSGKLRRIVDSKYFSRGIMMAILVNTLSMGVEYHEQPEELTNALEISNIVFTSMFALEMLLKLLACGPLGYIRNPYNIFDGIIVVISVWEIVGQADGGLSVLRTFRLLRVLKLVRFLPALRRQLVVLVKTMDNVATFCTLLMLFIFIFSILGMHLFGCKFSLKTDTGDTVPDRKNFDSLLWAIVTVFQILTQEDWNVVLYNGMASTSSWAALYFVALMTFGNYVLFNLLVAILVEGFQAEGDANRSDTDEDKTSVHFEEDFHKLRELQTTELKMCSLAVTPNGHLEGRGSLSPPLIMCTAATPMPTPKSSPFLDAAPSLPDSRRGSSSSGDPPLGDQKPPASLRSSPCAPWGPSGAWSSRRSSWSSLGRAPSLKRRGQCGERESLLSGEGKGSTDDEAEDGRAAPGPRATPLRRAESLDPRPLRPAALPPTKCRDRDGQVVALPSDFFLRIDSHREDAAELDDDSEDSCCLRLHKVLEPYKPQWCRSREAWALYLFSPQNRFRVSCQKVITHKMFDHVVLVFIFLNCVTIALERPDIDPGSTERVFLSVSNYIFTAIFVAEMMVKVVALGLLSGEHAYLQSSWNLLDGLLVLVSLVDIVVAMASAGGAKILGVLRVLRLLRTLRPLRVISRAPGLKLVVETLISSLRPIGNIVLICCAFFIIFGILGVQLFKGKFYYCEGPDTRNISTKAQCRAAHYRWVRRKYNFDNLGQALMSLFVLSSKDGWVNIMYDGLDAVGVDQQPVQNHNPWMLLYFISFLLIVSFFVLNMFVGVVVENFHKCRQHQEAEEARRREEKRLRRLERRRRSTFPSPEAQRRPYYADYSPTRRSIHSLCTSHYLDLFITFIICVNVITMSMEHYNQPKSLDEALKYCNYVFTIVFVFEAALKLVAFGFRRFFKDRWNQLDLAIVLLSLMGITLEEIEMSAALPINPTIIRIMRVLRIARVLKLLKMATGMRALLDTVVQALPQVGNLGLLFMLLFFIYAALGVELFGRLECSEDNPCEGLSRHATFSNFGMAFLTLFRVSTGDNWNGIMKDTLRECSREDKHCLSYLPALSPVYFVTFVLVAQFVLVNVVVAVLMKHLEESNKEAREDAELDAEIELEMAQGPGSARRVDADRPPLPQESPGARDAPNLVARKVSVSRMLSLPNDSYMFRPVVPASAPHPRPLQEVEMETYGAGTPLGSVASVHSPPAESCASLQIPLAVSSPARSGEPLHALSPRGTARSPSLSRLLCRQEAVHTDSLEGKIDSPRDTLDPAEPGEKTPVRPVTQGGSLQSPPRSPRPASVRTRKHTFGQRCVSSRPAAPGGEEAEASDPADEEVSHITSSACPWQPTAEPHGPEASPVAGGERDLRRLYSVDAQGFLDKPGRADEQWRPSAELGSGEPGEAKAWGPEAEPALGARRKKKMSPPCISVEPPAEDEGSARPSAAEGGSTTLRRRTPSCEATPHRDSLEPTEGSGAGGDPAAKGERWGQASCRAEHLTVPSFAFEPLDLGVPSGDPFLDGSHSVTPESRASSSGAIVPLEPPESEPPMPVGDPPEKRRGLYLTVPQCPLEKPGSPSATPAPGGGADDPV
Text: as §1

[3] = closed state, read-out: CAv1.2 IC50 Closed
[4] = inactivated state, read-out: CAv1.2 IC50 Inact.
[5] = closed state, read-out: CAv2.2 IC50 Closed
[6] = inactivated state, read-out: CAv2.2 IC50 Inact.
[7] = CAv3.2, closed state, read-out: CAv3.2 IC50 Closed
[8] = CAv3.2, inactivated state, read-out: CAv3.2 IC50 Inact.

Row | Compound | IC50 (CAv1.2; [3]) [µM] | IC50 (CAv1.2; [4]) [µM] | CAv1.2 IC50 Ratio closed/inact. (CAv1.2) | IC50 (Human Cav 2.2 channels; [5]) [µM] | IC50 (Human Cav 2.2 channels; [6]) [µM] | CAv2.2 IC50 Ratio closed/inact. (Human Cav 2.2 channels) | IC50 (T-type calcium channel [1]) [µM] | IC50 (T-type calcium channel [2]; [7]) [µM] | IC50 (T-type calcium channel [2]; [8]) [µM] | CAv3.2 IC50 Ratio closed/inact. (T-type calcium channel [2])
1 | CC(C)([C@H]1C[C@H](NC(=O)c2cncc(C(F)(F)F)c2)C1)S(=O)(=O)c1cccc(C(F)(F)F)c1 [Compound 671] | ≥ 10 | 7.82 | 1.3 | 5.47 | 0.28 | 19.5 | 9.28 | 5.73 | 6.36 | 0.9
2 | CC(C)([C@H]1C[C@H](NC(=O)c2ccnc(C(F)(F)F)c2)C1)S(=O)(=O)c1cccc(C(F)(F)F)c1 [Compound 672] | ≥ 10 | 3.3 | 3 | 7.42 | 0.31 | 23.9 | 5.05 | 5.93 | 4.05 | 1.5
3 | CC(C)([C@H]1C[C@H](NC(=O)c2ccc(Cl)cn2)C1)S(=O)(=O)c1cccc(C(F)(F)F)c1 [Compound 673] | ≥ 10 | 4.57 | 2.2 | 1.88 | 0.2 | 9.4 | 6.56 | 5.37 | 4.33 | 1.2
4 | CC(C)([C@H]1C[C@H](NC(=O)c2ccc(OCC(F)(F)F)nc2)C1)S(=O)(=O)c1cccc(C(F)(F)F)c1 [Compound 674] | 7.73 | 1.74 | 4.4 | 3.01 | 0.29 | 10.4 | 9.43 | 2.74 | 2.39 | 1.1
5 | CC(C)([C@H]1C[C@H](NC(=O)c2ccc(C(F)(F)F)nc2)C1)S(=O)(=O)c1cccc(C(F)(F)F)c1 [Compound 675] | ≥ 10 | 5.99 | 1.7 | 8.63 | 0.49 | 17.6 | ≥ 10 | 7.76 | 6.23 | 1.2
6 | CC(C)([C@H]1C[C@H](NC(=O)c2ccc(C(F)(F)F)cn2)C1)S(=O)(=O)c1cccc(C(F)(F)F)c1 [Compound 676] | 7.96 | 3.25 | 2.4 | 1.85 | 0.16 | 11.6 | 3.87 | 4.27 | 3.79 | 1.1
7 | CC(C)([C@H]1C[C@H](NC(=O)c2ccc(C(F)(F)F)cc2)C1)S(=O)(=O)c1cccc(C(F)(F)F)c1 [Compound 677] | 6.35 | 2.23 | 2.8 | 2.86 | 0.22 | 13 | 2.79 | 1.78 | 1.82 | 1
8 | CC(C)S(=O)(=O)c1cc(C(F)(F)F)cnc1C(=O)NC[C@H]1C[C@@H](C(C)(C)S(=O)(=O)c2cccc(C(F)(F)F)c2)C1 [Compound 681] | ≥ 10 | 2.62 | 3.8 | 9.89 | 0.16 | 61.8 | 4.82 | 5.93 |  | 
9 | CC(C)(C1CC(CNC(=O)c2cc(C(F)(F)F)n[nH]2)C1)S(=O)(=O)c1cccc(C(F)(F)F)c1 (stereo not drawn) [Compound 682] | ≥ 10 | 2.16 | 4.6 | 6.64 | 0.53 | 12.5 | ≥ 10 | 2.31 |  | 
10 | CC(C)([C@H]1C[C@@H](CNC(=O)c2ccnc(C(F)(F)F)n2)C1)S(=O)(=O)c1cccc(C(F)(F)F)c1 [Compound 683] | ≥ 10 | 6.11 | 1.6 | 2.77 | 0.26 | 10.7 | 5.53 | 5.45 |  | 
11 | CC(C)([C@H]1C[C@@H](CNC(=O)c2ncc(C(F)(F)F)cn2)C1)S(=O)(=O)c1cccc(C(F)(F)F)c1 [Compound 684] | ≥ 10 | 5.35 | 1.9 | 8.03 | 0.65 | 12.4 | 4.65 | 4.67 |  | 
12 | CC(C)([C@H]1C[C@@H](CNC(=O)c2ccc(F)c(Cl)c2)C1)S(=O)(=O)c1cccc(C(F)(F)F)c1 [Compound 685] | 4.71 | 1.01 | 4.7 | 1.87 | 0.18 | 10.4 | 0.38 | 0.44 |  | 
13 | CC(C)([C@H]1C[C@@H](CNC(=O)c2ccc(OCC(F)(F)F)nc2)C1)S(=O)(=O)c1cccc(C(F)(F)F)c1 [Compound 686] | 4.42 | 1.1 | 4 | 2.47 | 0.26 | 9.5 | 1.17 | 1.2 |  | 
14 | CC(C)([C@H]1C[C@@H](CNC(=O)c2ccnc(C(F)(F)F)c2)C1)S(=O)(=O)c1cccc(C(F)(F)F)c1 [Compound 687] | ≥ 10 | 2.39 | 4.2 | 4.11 | 0.53 | 7.8 | 2.61 | 1.65 |  | 
15 | CC(C)([C@H]1C[C@@H](CNC(=O)c2ccc(Cl)c(OC(F)(F)F)c2)C1)S(=O)(=O)c1cccc(C(F)(F)F)c1 [Compound 688] | 4.59 | 0.45 | 10.2 | 3.4 | 0.22 | 15.5 | 0.25 | 0.45 | 0.17 | 2.6
16 | CC(C)([C@H]1C[C@@H](CNC(=O)c2ncc(C(F)(F)F)cc2S(C)(=O)=O)C1)S(=O)(=O)c1cccc(C(F)(F)F)c1 [Compound 690] | ≥ 10 | ≥ 10 |  | 10 | 0.45 | 22.2 | ≥ 10 | ≥ 10 |  | 
17 | CC(C)([C@H]1C[C@@H](CNc2ccnc(C(F)(F)F)n2)C1)S(=O)(=O)c1cccc(C(F)(F)F)c1 [Compound 691] | 4.94 | 2.22 | 2.2 | 4.03 | 0.53 | 7.6 | 5.83 | 7.35 |  | 
18 | CS(=O)(=O)c1cc(Cl)ccc1C(=O)NC[C@H]1C[C@H](S(=O)(=O)c2cccc(OC(F)(F)F)c2)C1 [Compound 692] | ≥ 10 | ≥ 10 |  | 7.75 | 0.78 | 9.9 | 9.81 | 7.92 | 2.48 | 3.2
19 | O=C(NC[C@H]1C[C@H](S(=O)(=O)c2cccc(OC(F)(F)F)c2)C1)c1ccc(Cl)cn1 [Compound 693] | ≥ 10 | 6.64 | 1.5 | 1.77 | 0.34 | 5.2 | ≥ 10 | 7.95 | 2.77 | 2.9
20 | O=C(NC[C@H]1C[C@H](S(=O)(=O)c2cccc(OC(F)(F)F)c2)C1)c1ccc(C(F)(F)F)cc1 [Compound 694] | 7.51 | 2.22 | 3.4 | 2.11 | 0.3 | 7 | 3.08 | 2.47 | 1 | 2.5
21 | O=C(NC[C@H]1C[C@H](S(=O)(=O)c2cccc(OC(F)(F)F)c2)C1)c1ccc(C(F)(F)F)nc1 [Compound 695] | ≥ 10 | ≥ 10 |  | 5.12 | 0.78 | 6.6 | 9.87 | 8.58 | 5.58 | 1.5
22 | O=C(NC[C@H]1C[C@H](S(=O)(=O)c2cccc(OC(F)(F)F)c2)C1)c1cnc(C(F)(F)F)nc1 [Compound 696] | ≥ 10 | 8.33 | 1.2 | 7.07 | 0.94 | 7.5 | ≥ 10 | 9.92 | 6.35 | 1.6
23 | O=C(NC[C@H]1C[C@H](S(=O)(=O)c2cccc(OC(F)(F)F)c2)C1)c1ccc(OCC(F)(F)F)nc1 [Compound 698] | 5.6 | 2.48 | 2.3 | 2.7 |  | 5.7 | 3.02 | 3.02 |  | 1.1
